Test results taken from ChEMBL document CHEMBL1201862, “PubChem BioAssay data set” (2004).
Activity calls are given as the source filed them.

Experiments:
[1] = cells
[2] = viability of uninfected HEp-2 cells – cell-based, HTS, cytotoxicity control for RSV inhibitor project, dose response (AID 2410); format: functional; details: human respiratory syncytial virus
[3] = Dd2 malaria parasite growth inhibition potency – SYBR Green, dry powder samples, dose response (AID 1159566); format: functional, cell-based;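 also: potency for growth inhibition with lower SYBR green DNA signal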
[4] = P. falciparum Dd2 growth inhibitors, dose response, SYBR Green, cherry-picked samples (AID 1159567); format: functional, cell-based
[5] = growth inhibition of PfATP4-mutant resistant parasites – NITD609-resistant line, SYBR Green, dry powder, dose response (AID 1159571); format: functional, cell-based;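 also: parasites synchronized at ring stage by sorbitol before testing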
[6] = growth inhibition of yeast DHODH-expressing 3D7 parasites – SYBR Green, dry powder samples, dose response (AID 1159570); format: functional, cell-based;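 also: parasite growth measured after 72 hours of compound exposure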
[7] = tested on: HEK293; assay: Fluorescence-based counterscreen for potentiators or agonists of NPY-Y2: cell-based high-throughput dose response assay to identify inhibitors of cyclic nucleotide gated ion channel (CNGC) activity. In this assay, the parental HEK293 cell line transfected with a cyclic-nucleotide gated ion channel (CNGC)-based cAMP sensor is used to measure inhibition of isoproterenol-induced CNGC activity by test compound.; format: functional; details: Homo sapiens;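 also: stimulus is 1 µM isoproterenol at EC100 plus PDE inhibitor Ro 20-1724 at 25 µM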
[8] = tested on: Streptococcus; assay: GAS UMAA2166 growth inhibition – luminescence, BacTiterGlo, counter-screen for streptokinase expression inhibitor project, dose response (AID 1915); format: functional, organism-based;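 also: potency for reduction of bacterial viability or growth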
[9] = tested on: Streptococcus sp. 'group A'; assay: Streptococcus pyogenes SK(-)GAS viability under kanamycin – luminescence, BacTiterGlo, confirmation, counter-screen for streptokinase expression inhibitor project, dose response (AID 1900); format: functional, organism-based
[10] = molecular target: T1, Streptokinase A (Streptococcus pyogenes serotype M1, UniProt P10520); assay: viability-normalized secreted streptokinase activity reduction – plasminogen activation absorbance, OD405, dose response (AID 1914); format: functional, Streptococcus pyogenes M1 GAS;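 also: secreted streptokinase activity via plasminogen activation per viability signal from cell pellet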
T1 sequence (P10520 whole entry): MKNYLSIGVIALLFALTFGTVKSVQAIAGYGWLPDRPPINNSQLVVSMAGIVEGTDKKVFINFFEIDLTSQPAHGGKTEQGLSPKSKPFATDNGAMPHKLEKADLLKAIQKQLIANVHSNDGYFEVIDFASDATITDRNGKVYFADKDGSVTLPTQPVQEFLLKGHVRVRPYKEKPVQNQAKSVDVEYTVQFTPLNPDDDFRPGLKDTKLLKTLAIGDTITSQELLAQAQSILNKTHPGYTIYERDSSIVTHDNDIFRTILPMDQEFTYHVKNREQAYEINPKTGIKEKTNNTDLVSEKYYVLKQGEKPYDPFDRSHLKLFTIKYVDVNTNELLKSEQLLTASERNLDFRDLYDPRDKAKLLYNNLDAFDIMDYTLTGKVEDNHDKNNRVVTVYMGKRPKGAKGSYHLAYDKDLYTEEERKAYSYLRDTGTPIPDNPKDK

[11] = molecular target: T2, Replicative DNA helicase DnaB (Mycobacterium tuberculosis, UniProt P9WMR3); assay: DnaB intein splicing inhibitors, dose response, biochemical, cell-free fluorescence (AID 449749); format: functional
T2 sequence (P9WMR3 whole entry): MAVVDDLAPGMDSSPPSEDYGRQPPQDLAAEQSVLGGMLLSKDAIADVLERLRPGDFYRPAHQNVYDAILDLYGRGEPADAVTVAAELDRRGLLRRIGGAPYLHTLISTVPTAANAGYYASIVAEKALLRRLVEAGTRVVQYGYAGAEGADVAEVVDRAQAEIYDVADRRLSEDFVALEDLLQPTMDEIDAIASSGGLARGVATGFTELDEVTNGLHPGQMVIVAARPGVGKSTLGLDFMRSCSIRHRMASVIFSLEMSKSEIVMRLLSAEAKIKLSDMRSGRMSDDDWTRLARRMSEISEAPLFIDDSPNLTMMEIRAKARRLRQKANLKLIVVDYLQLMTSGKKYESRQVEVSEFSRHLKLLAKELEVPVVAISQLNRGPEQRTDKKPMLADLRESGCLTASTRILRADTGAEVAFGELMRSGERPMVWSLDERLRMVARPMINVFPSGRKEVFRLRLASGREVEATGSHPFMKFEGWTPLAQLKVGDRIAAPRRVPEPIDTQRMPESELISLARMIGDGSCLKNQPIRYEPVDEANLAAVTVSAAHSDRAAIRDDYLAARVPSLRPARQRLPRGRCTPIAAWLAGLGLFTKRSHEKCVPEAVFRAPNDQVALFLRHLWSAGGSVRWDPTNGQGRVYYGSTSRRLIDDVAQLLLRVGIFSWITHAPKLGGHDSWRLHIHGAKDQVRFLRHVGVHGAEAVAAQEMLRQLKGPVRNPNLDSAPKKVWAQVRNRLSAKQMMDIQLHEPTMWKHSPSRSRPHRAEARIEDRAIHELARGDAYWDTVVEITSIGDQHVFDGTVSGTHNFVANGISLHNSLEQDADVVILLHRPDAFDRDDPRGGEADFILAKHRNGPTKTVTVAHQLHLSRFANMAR

[12] = molecular target: T3, Protein RecA (Mycobacterium tuberculosis, UniProt P9WHJ3); assay: Fluorescence Cell-Free Homogeneous Dose Retest to Identify Inhibitors of RecA-Intein Splicing Activity. [Related pubchem assays (depositor defined):AID2097, AID2223, AID489010, AID492950]; format: functional
T3 sequence (P9WHJ3 whole entry): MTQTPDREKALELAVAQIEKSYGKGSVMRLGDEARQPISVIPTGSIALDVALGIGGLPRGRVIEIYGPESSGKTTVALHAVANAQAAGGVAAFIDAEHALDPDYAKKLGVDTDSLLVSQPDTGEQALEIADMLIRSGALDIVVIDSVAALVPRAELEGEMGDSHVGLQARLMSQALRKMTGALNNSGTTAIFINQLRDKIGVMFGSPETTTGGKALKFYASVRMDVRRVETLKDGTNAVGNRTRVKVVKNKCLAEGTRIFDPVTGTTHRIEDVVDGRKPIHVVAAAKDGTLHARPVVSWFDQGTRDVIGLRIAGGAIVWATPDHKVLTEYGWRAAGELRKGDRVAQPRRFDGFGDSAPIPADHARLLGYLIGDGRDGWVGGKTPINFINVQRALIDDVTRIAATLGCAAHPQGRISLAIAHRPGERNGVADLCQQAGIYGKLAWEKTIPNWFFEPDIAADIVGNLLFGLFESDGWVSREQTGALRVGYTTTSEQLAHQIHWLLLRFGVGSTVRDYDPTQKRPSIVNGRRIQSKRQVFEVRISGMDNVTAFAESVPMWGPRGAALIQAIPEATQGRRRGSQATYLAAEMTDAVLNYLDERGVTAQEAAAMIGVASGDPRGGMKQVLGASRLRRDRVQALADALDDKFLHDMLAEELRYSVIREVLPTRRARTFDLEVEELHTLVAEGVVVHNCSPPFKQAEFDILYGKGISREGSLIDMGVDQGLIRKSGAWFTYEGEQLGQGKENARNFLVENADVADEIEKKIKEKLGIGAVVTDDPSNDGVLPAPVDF

[13] = molecular target: T4, Neuropeptide Y receptor type 1 (Homo sapiens, UniProt P25929); assay: Fluorescence-based counterscreen for agonists of NPY-Y2: cell-based high-throughput dose response assay for agonists of NPY-Y1.; format: functional
T4 sequence (P25929 whole entry): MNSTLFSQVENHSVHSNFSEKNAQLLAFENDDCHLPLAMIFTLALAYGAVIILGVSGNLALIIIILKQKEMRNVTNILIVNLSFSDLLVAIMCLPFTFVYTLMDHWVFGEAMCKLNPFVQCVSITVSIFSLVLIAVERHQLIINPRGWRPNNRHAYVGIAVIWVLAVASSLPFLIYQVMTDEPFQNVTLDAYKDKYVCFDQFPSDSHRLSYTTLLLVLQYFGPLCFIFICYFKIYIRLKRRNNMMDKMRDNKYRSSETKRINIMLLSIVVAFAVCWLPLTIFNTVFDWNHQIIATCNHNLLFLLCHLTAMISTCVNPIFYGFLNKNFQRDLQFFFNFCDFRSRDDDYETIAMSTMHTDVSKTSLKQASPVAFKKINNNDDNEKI

[14] = molecular target: T5, Neuropeptide Y receptor type 2 (Homo sapiens, UniProt P49146); assay: Fluorescence-based cell-based high-throughput dose response assay for agonists of NPY-Y2. [Related pubchem assays: 1703 (Screening assay (CNGC inhibitors).), 1359 (Screening assay (NPY-Y2 potentiators or agonists).), 1304 (Screening assay (NPY-Y1 potentiators or agonists).), 1710 (Screening assay (NPY-Y2 agonists).), 1791 (Summary AID.)]; format: functional
T5 sequence (P49146 whole entry): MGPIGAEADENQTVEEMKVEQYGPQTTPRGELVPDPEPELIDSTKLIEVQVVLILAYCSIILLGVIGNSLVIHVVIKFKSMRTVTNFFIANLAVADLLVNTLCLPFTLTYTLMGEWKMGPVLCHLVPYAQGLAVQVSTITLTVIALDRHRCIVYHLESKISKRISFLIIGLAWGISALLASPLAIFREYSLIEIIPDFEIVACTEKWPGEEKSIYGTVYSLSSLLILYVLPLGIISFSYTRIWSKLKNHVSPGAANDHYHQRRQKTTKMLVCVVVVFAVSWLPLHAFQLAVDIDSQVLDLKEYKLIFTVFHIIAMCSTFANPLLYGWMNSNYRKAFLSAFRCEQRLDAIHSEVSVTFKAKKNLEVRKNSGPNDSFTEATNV

[15] = molecular target: Prothrombin (Homo sapiens, UniProt P00734); assay: Thrombin 1536 HTS Dose Response Confirmation. [Related pubchem assays: 1046 (Thrombin 1536 HTS; hits were confirmed in this assay)]; format: functional
[16] = viability loss in HeLa cells – cytotoxicity control for MgcRacGAP inhibitor project, dose response (AID 624300); format: functional
[17] = molecular target: NAD-dependent protein deacylase sirtuin-5, mitochondrial (Homo sapiens, UniProt Q9NXA8); assay: sirtuin-5 deacylation blockers, concentration series – biochemical, fluorescence imaging, cherry-pick, set 5, dose response (AID 720591);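 also: desuccinylation of succinyl peptide AMC substrate read as fluorescence after trypsin release; potency of inhibitors that lower fluorescence and may act on trypsin instead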
[18] = molecular target: T6, Rac GTPase-activating protein 1 (Homo sapiens, UniProt Q9H0H5); assay: blockers of MgcRacGAP-driven Rac1 GTP hydrolysis – biochemical, ADP Hunter fluorescence, primary and confirmatory, confirmation (AID 624330); format: functional
T6 sequence (Q9H0H5 whole entry): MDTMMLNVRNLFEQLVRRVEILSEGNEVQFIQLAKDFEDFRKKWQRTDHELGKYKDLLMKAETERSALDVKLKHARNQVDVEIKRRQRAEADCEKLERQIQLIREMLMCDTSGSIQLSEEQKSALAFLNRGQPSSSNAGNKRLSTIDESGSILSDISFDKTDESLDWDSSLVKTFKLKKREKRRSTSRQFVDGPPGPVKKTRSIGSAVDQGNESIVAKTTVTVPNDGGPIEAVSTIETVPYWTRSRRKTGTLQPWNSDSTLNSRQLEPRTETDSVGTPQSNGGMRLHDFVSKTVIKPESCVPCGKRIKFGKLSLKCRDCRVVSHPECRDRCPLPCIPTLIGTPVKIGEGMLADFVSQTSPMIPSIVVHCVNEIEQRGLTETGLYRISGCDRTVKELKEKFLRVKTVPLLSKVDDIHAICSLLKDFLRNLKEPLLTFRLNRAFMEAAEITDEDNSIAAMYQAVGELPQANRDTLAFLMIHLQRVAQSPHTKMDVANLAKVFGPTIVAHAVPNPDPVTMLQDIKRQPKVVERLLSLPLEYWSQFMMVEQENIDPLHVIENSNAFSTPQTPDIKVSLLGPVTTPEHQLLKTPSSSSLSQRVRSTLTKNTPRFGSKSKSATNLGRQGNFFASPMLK

NAD-dependent protein deacylase sirtuin-5, mitochondrial, sequence (Q9NXA8 whole entry): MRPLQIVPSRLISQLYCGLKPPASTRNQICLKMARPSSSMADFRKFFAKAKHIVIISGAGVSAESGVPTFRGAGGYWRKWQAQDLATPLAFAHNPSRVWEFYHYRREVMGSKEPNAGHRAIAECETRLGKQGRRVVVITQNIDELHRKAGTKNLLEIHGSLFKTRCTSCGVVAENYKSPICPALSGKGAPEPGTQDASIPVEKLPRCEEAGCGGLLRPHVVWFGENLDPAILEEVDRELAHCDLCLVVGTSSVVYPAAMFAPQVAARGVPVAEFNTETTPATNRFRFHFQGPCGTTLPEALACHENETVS

Nc1ccc(Br)c[n+]1Cc1cccc2cccnc12
IC50 [1]: 46.7 µM (active)
CC50 [2]: > 50 µM (active)

C/C=C/c1ccccc1[C@H]1[C@@H](C#N)N(C(=O)NC2CCCC2)[C@H]1CO
AC50 [3]: 0.952 µM (active)
AC50 [4]: 1.85 µM (active)
AC50 [5]: 1.58 µM (active)
AC50 [6]: 33.8 µM (active)

CC(=O)C(=Nc1ccc(Cl)cc1Cl)NNc1cccc(Cl)c1
EC50 [7]: > 35.4 µM (not active)
EC50 [8]: > 150 µM (not active)
EC50 [9]: 3.14 µM (active)

CC(=O)C(=NNc1cccc(Cl)c1)Nc1ccc(Cl)cc1Cl
EC50 [10]: 2.72 µM (active)
AC50 [11]: 379 µM (active)
EC50 [12]: 49 µM (active)
EC50 [13]: 12.6 µM (not active)
EC50 [14]: 21.2 µM (not active)

Cc1ccc(C)c(NC(=O)C2Cc3ccccc3CN2C(=O)OCc2ccccc2)c1 (stereo unspecified)
IC50 [15]: > 50 µM (not active)

CCOC(=O)c1ccc(NC(=O)NC2CCN(CC(=O)NCc3ccc4c(c3)OCO4)CC2)cc1
IC50 [15]: > 50 µM (not active)

CCN(CC)c1ccc(S(=O)(=O)N2CCOCC2)cc1NC(=O)CN1CCN(Cc2ccccc2)CC1
CC50 [16]: 100 µM (active)
AC50 [17]: 18.1 µM (active)
IC50 [18]: 84.5 µM (active)

Cc1ccc(C(=O)n2nc(-c3ccco3)nc2N)cc1
IC50 [15]: 0.741 µM (active)

O=C1c2ccccc2C(=O)N1CCCCN(C(=O)c1ccco1)c1ccc(Cl)cc1
IC50 [1]: 11.8 µM (active)
